Assay results taken from ChEMBL document CHEMBL1177848, “Synthesis of novel 6,6a,7,8-tetrahydro-5H-naphtho[1,2-e]pyrimido[4,5-b][1,4]diazepines under microwave irradiation as potential anti-tumor agents” (2010).
The source made the active and inactive calls. The rule behind the calls is not given here.

Assays:
PC-3 = experiment: Growth inhibition of human PC3 cells at 1 uM after 48 hrs by sulforhodamine B assay; format: functional, cell-based
SNB-75 = experiment: Growth inhibition of human SNB75 cells at 1 uM after 48 hrs by sulforhodamine B assay; format: functional, cell-based
RXF 393 = experiment: Growth inhibition of human RXF393 cells at 1 uM after 48 hrs by sulforhodamine B assay; format: functional, cell-based
COLO 205 = experiment: Growth inhibition of human COLO205 cells after 48 hrs by sulforhodamine B assay; format: functional; settings: COLO 205, 48 h
HOP-62 = experiment: Growth inhibition of human HOP62 cells at 1 uM after 48 hrs by sulforhodamine B assay; format: functional, cell-based
MDA-MB-231 = experiment: Growth inhibition of human MDA-MB-231 cells at 1 uM after 48 hrs by sulforhodamine B assay; format: functional, cell-based
SK-MEL-5 [1] = experiment: Growth inhibition of human SK-MEL-5 cells after 48 hrs by sulforhodamine B assay; format: functional; settings: SK-MEL-5, 48 h
SF-295 [2] = experiment: Growth inhibition of human SF295 cells at 1 uM after 48 hrs by sulforhodamine B assay; format: functional, cell-based
NCI/ADR-RES = experiment: Growth inhibition of human NCI/ADR-RES cells at 1 uM after 48 hrs by sulforhodamine B assay; format: functional, cell-based
Hs-578T = experiment: Growth inhibition of human Hs 578T cells at 1 uM after 48 hrs by sulforhodamine B assay; format: functional, cell-based
SF-295 [3] = experiment: Growth inhibition of human SF295 cells after 48 hrs by sulforhodamine B assay; format: functional; settings: SF-295, 48 h
OVCAR-4 [4] = experiment: Growth inhibition of human OVCAR4 cells after 48 hrs by sulforhodamine B assay; format: functional; settings: OVCAR-4, 48 h
NCI-H23 = experiment: Growth inhibition of human NCI-H23 cells after 48 hrs by sulforhodamine B assay; format: functional; settings: NCI-H23, 48 h
KM12 [5] = experiment: Growth inhibition of human KM12 cells at 1 uM after 48 hrs by sulforhodamine B assay; format: functional, cell-based
T47D = experiment: Growth inhibition of human T47D cells at 1 uM after 48 hrs by sulforhodamine B assay; format: functional, cell-based
KM12 [6] = experiment: Growth inhibition of human KM12 cells after 48 hrs by sulforhodamine B assay; format: functional; settings: KM12, 48 h
SK-MEL-2 = experiment: Growth inhibition of human SK-MEL-2 cells at 1 uM after 48 hrs by sulforhodamine B assay; format: functional, cell-based
HOP-92 = experiment: Growth inhibition of human HOP92 cells at 1 uM after 48 hrs by sulforhodamine B assay; format: functional, cell-based
HCT-116 = experiment: Growth inhibition of human HCT116 cells after 48 hrs by sulforhodamine B assay; format: functional; settings: HCT-116, 48 h
MDA-MB-468 = experiment: Growth inhibition of human MDA-MB-468 cells after 48 hrs by sulforhodamine B assay; format: functional; settings: MDA-MB-468, 48 h
SF530 = experiment: Growth inhibition of human SF530 cells at 1 uM after 48 hrs by sulforhodamine B assay; format: functional, cell-based
OVCAR-4 [7] = experiment: Growth inhibition of human OVCAR4 cells at 1 uM after 48 hrs by sulforhodamine B assay; format: functional, cell-based
SW-620 = experiment: Growth inhibition of human SW620 cells at 1 uM after 48 hrs by sulforhodamine B assay; format: functional, cell-based
OVCAR-8 = experiment: Growth inhibition of human OVCAR8 cells at 1 uM after 48 hrs by sulforhodamine B assay; format: functional, cell-based
TK-10 = experiment: Growth inhibition of human TK10 cells after 48 hrs by sulforhodamine B assay; format: functional; settings: TK-10, 48 h
NCI-H522 [8] = experiment: Growth inhibition of human NCI-H522 cells at 1 uM after 48 hrs by sulforhodamine B assay; format: functional, cell-based
NCI-H522 [9] = experiment: Growth inhibition of human NCI-H522 cells after 48 hrs by sulforhodamine B assay; format: functional; settings: NCI-H522, 48 h
RPMI-8226 [10] = experiment: Growth inhibition of human RPMI8226 cells at 1 uM after 48 hrs by sulforhodamine B assay; format: functional, cell-based
UACC-257 [11] = experiment: Growth inhibition of human UACC257 cells after 48 hrs by sulforhodamine B assay; format: functional; settings: UACC-257, 48 h
SK-MEL-5 [12] = experiment: Growth inhibition of human SK-MEL-5 cells at 1 uM after 48 hrs by sulforhodamine B assay; format: functional, cell-based
SF-539 = experiment: Growth inhibition of human SF539 cells at 1 uM after 48 hrs by sulforhodamine B assay; format: functional, cell-based
OVCAR-3 = experiment: Growth inhibition of human OVCAR-3 cells after 48 hrs by sulforhodamine B assay; format: functional; settings: OVCAR-3, 48 h
UACC-257 [13] = experiment: Growth inhibition of human UACC257 cells at 1 uM after 48 hrs by sulforhodamine B assay; format: functional, cell-based
LOX IMVI [14] = experiment: Growth inhibition of human LOXIMVI cells at 1 uM after 48 hrs by sulforhodamine B assay; format: functional, cell-based
LOX IMVI [15] = experiment: Growth inhibition of human LOXIMVI cells after 48 hrs by sulforhodamine B assay; format: functional
786-0 = experiment: Growth inhibition of human 786-0 cells at 1 uM after 48 hrs by sulforhodamine B assay; format: functional, cell-based
ACHN = experiment: Growth inhibition of human ACHN cells at 1 uM after 48 hrs by sulforhodamine B assay; format: functional, cell-based
A549 = experiment: Growth inhibition of human A549 cells at 1 uM after 48 hrs by sulforhodamine B assay; format: functional, cell-based
RPMI-8226 [16] = experiment: Growth inhibition of human RPMI8226 cells after 48 hrs by sulforhodamine B assay; format: functional; settings: RPMI-8226, 48 h
MDA-MB-435 = experiment: Growth inhibition of human MDA-MB-435 cells at 1 uM after 48 hrs by sulforhodamine B assay; format: functional, cell-based
HCT-15 = experiment: Growth inhibition of human HCT15 cells at 1 uM after 48 hrs by sulforhodamine B assay; format: functional, cell-based
SK-MEL-28 = experiment: Growth inhibition of human SK-MEL-28 cells at 1 uM after 48 hrs by sulforhodamine B assay; format: functional, cell-based
NCI-H460 = experiment: Growth inhibition of human NCI-H460 cells at 1 uM after 48 hrs by sulforhodamine B assay; format: functional, cell-based
UACC-62 [17] = experiment: Growth inhibition of human UACC62 cells after 48 hrs by sulforhodamine B assay; format: functional; settings: UACC-62, 48 h
UACC-62 [18] = experiment: Growth inhibition of human UACC62 cells at 1 uM after 48 hrs by sulforhodamine B assay; format: functional, cell-based
DU-145 = experiment: Growth inhibition of human DU145 cells at 1 uM after 48 hrs by sulforhodamine B assay; format: functional, cell-based
MCF7 = experiment: Growth inhibition of human MCF7 cells at 1 uM after 48 hrs by sulforhodamine B assay; format: functional, cell-based
[19] = read-out: LC50 (the source's name)

Nc1nc(N)c2c(n1)NC(c1ccc(Cl)cc1)C1CCc3ccccc3C1=N2 (configuration not stated)
growth inhibition (GI) (PC-3): inactive
growth inhibition (GI) (SNB-75): inactive
growth inhibition (GI) (RXF 393): inactive
GI50 (COLO 205): 2.78 µM
LC50 (50% lethal concentration) (COLO 205): 30.1 µM
growth inhibition (GI) (HOP-62): inactive
growth inhibition (GI) (MDA-MB-231): inactive
GI50 (SK-MEL-5 [1]): 0.5 µM
LC50 (SK-MEL-5 [1]): 6.56 µM
growth inhibition (GI) (SF-295 [2]): inactive
growth inhibition (GI) (NCI/ADR-RES): inactive
growth inhibition (GI) (Hs-578T): inactive
GI50 (SF-295 [3]): 3.37 µM
LC50 (50% lethal concentration) (SF-295 [3]): 40.7 µM
GI50 (OVCAR-4 [4]): 6.45 µM
LC50 (50% lethal concentration) (OVCAR-4 [4]): 50.9 µM
GI50 (NCI-H23): 4.88 µM
LC50 (NCI-H23): 44.7 µM
growth inhibition (GI) (KM12 [5]): inactive
growth inhibition (GI) (T47D): inactive
GI50 (KM12 [6]): 8.48 µM
LC50 (concentration killing 50% of cells) (KM12 [6]): 45.6 µM
growth inhibition (GI) (SK-MEL-2): inactive
growth inhibition (GI) (HOP-92): inactive
GI50 (HCT-116): 3.72 µM
LC50 (HCT-116): 38.6 µM
GI50 (MDA-MB-468): 1.6 µM
CC50 (MDA-MB-468; [19]): 54.5 µM
growth inhibition (GI) (SF530): inactive
growth inhibition (GI) (OVCAR-4 [7]): inactive
growth inhibition (GI) (SW-620): inactive
growth inhibition (GI) (OVCAR-8): inactive
GI50 (TK-10): 8.2 µM
LC50 (50% lethal concentration) (TK-10): 58 µM
growth inhibition (GI) (NCI-H522 [8]): inactive
GI50 (NCI-H522 [9]): 5.21 µM
LC50 (NCI-H522 [9]): 54.4 µM
growth inhibition (GI) (RPMI-8226 [10]): inactive
GI50 (UACC-257 [11]): 7.07 µM
CC50 (UACC-257 [11]; [19]): 44.9 µM
growth inhibition (GI) (SK-MEL-5 [12]): inactive
growth inhibition (GI) (SF-539): inactive
GI50 (OVCAR-3): 6.46 µM
LC50 (lethal concentration, 50% cell kill) (OVCAR-3): 43.6 µM
growth inhibition (GI) (UACC-257 [13]): inactive
growth inhibition (GI) (LOX IMVI [14]): inactive
GI50 (LOX IMVI [15]): 3.53 µM
LC50 (LOX IMVI [15]): 44.5 µM
growth inhibition (GI) (786-0): inactive
growth inhibition (GI) (ACHN): inactive
growth inhibition (GI) (A549): inactive
GI50 (RPMI-8226 [16]): 2.75 µM
LC50 (RPMI-8226 [16]): 57.9 µM
growth inhibition (GI) (MDA-MB-435): inactive
growth inhibition (GI) (HCT-15): inactive
growth inhibition (GI) (SK-MEL-28): inactive
growth inhibition (GI) (NCI-H460): inactive
GI50 (UACC-62 [17]): 3.66 µM
LC50 (UACC-62 [17]): 43.3 µM
growth inhibition (GI) (UACC-62 [18]): inactive
growth inhibition (GI) (DU-145): inactive
growth inhibition (GI) (MCF7): inactive
